# Laboratory results: patent EP3733658B1, “PRENYLATED BENZOPYRANES AS PPAR AGONISTS” (Universitat de València, priority 2017, dated 2019)
# Assays:
# [1] = target: T1, RXRα/PPARγ interaction (Homo sapiens, UniProt P37231); test: Immunoprecipitation of PPARγ followed by Western blot for RXRα in HUVEC; format: cell-based; settings: pretreated HUVEC
# T1 construct: endogenous in cells; host or cells: HUVEC
# T1 sequence (P37231 29-505 limits assumed): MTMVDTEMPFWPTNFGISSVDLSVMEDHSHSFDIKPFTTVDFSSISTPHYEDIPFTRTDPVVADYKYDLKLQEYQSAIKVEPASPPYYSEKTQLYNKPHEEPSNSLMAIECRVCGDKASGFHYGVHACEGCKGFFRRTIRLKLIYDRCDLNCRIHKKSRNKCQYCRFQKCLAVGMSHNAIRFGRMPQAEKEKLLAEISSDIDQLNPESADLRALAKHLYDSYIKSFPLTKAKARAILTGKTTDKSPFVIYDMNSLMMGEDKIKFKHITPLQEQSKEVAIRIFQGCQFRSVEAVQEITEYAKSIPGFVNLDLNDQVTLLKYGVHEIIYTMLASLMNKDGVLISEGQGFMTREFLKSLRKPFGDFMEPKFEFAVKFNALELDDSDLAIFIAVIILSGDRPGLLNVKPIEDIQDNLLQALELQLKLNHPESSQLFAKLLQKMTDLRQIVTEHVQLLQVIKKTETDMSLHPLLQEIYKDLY
# T1 sequence (P19793 1-462 partner): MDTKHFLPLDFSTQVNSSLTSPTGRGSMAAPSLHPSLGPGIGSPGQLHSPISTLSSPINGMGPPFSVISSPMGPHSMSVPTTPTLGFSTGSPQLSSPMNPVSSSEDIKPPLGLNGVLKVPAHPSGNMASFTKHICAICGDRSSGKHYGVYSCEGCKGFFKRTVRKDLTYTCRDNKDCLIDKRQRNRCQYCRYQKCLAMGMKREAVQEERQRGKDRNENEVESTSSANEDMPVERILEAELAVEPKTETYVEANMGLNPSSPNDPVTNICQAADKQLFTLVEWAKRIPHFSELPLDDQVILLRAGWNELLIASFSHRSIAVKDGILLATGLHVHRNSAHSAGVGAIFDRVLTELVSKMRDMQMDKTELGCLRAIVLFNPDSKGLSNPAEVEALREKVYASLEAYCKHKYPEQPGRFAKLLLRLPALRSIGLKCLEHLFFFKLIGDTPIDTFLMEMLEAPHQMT
# Description: For the immunoprecipitation, the protein extracts were obtained in 50 mM Tris-HCl (pH 8), 150 mM NaCl, 1% Nonidet P-40 and protease (1 mM PMSF, 40 µg/mL aprotinin and 40 µg/mL leupeptin) and phosphatase inhibitors. Then the protein extracts (~200 µg) were incubated with 5 µg of an antibody against PPARγ. Immunocomplexes were precipitated using an anti-rabbit IgG beads (cat# 8800, eBioscience, San Diego, CA) and suspended in a sample buffer with 50 mM dithiotreitol (DTT). Western blot was performed with an antibody against RXRα and the membranes were incubated with the secondary HRP-conjugate Rabbit TrueBlot (eBioscience, San Diego, CA) as secondary antibody. Chemoluminescence signals were developed with ECL (GE Healthcare, Madrid, Spain).
# [2] = tested on: HUVEC; test: Annexin V / propidium iodide flow cytometry of apoptosis and survival, HUVEC; format: cell-based, human; settings: tested concentrations including 100 µM, compared with the vehicle
# Description: (§1) In addition, the apoptosis and survival rate for human neutrophils and HUVEC was determined by double staining with annexin V and propidium iodide (PI) by flow cytometry.
# (§2) Cytofluorometric analysis of apoptosis and survival. The kit FITC Annexin V Apoptosis Detection kit (BD Bioscience, San Jose, CA) was used. The staining protocol and all the reagents were supplied with the commercial kit. HUVEC were separated from the culture flasks by accutase (StemPro® Accutase® Cell dissociation reagent, Thermofischer Scientific Waltham, MA). Both cell types were incubated at 37°C for 24h in the presence or absence of the test compounds. Confluent HUVEC and freshly isolated neutrophils were washed, resuspended in binding buffer 1x (1 × 10^6 cells/mL) and stained with annexin V conjugated with FITC and propidium iodide (PI) as described in the manufacturer's instructions. The cells were analyzed in a BD FACSVerse Flow Cytometer (BD Biosciences, San Jose, CA) and differentiated as early apoptosis cells (annexin V^+ and PI^-), late apoptosis cells and/or necrotic cells (annexin V^+ and PI^+), and live cells (annexin V^- and PI^-).
# [3] = tested on: human neutrophils; test: Annexin V / propidium iodide flow cytometry of apoptosis and survival, neutrophils; format: cell-based; settings: 24 h, compared to the vehicle
# Description: as §1, §2
# [4] = Treatment of ob/ob mice: body weight gain and feed efficiency; settings: oral, 4 days
# Source text: Protocols conforming to European Union guidelines for the care and protection of animals were approved by the Ethics Committee of the University of Valencia. All efforts were made to minimize the number of animals used and their suffering. ob/ob mice have a leptin deficiency, and are associated with hyperphagia and obesity, as well as hyperglycemia and hyperinsulinemia. This study used male ob/ob mice (C57BU6J) (Charles River laboratories, Chatillon-sur-Chalaronne, France).
# The mice were housed in individual cages in a room with controlled temperature, humidity and light. […] The mice were allowed to acclimate for ten days prior to the study.
# The control ob/ob mice were just administered with vehicle (physiological saline solution with HEC 1%). […] The compounds were prepared freshly each day in a 1% suspension of HEC for oral administration. Randomization was performed based on the glycaemia values on day 0. For the duration of the experiment the amount of food ingested and the body weight were determined daily for each mouse. Every day between 9:00 and 11:00 a.m. (prior to treatment) blood glucose levels were measured using (Contour next USB Blood glucose meter, BAYER, Basel, Switzerland). On the fifth day of the experiment the mice were anesthesized with isofluorane and blood was extracted by cardiac puncture. The blood was collected in tubes containing EDTA or heparin. Plasma samples were obtained by centrifugation and stored at -80°C. After obtaining the samples, the animals were sacrificed by cervical dislocation and subsequently different organs such as white adipose tissue (WAT) and liver were extracted for additional studies. The organs were weighed and frozen for subsequent RNA analysis and to conduct histological studies
# The weight gain at the end of treatment was calculated (d5-d0) (Figure 14A).
SMILES,RXRα/PPARγ interaction [1],toxicity [2],effect on neutrophil survival ([3]; 30 µM) [%],effect on cell survival ([3]; 100 µM) [%],Weight gain (d5-d0) ([4]; 30 mg/Kg/d) [g],Feed efficiency (ratio of weight gain and food consumed) [4],weight gain compared to the control group ([4]; doses of 10 and 30 mg/Kg/d)
"C/C(=C\CCC1(C)CCc2cc(O)cc(C)c2O1)CC/C=C(\C)C(=O)O (stereo not shown) [Polycerasoidol, 1, polycerasoidol]",increased RXRα/PPARγ interaction,–,–,–,–,–,–
CCOC(=O)CCC(C)=CCCC1(C)CCc2cc(OCc3ccc(F)cc3)ccc2O1 (stereo not shown) [Compound 9],–,absence of toxicity,1.07,1.55,1.88 ± 0.52,no observable differences,did not cause significant differences
